{
  "source": "ChEMBL document CHEMBL1201862",
  "about": "“PubChem BioAssay data set” (2004)",
  "key": {"SUMO-activating enzyme": {"target": "SUMO-activating enzyme (Homo sapiens, UniProt Q9UBT2)", "sequence (Q9UBE0 whole entry)": "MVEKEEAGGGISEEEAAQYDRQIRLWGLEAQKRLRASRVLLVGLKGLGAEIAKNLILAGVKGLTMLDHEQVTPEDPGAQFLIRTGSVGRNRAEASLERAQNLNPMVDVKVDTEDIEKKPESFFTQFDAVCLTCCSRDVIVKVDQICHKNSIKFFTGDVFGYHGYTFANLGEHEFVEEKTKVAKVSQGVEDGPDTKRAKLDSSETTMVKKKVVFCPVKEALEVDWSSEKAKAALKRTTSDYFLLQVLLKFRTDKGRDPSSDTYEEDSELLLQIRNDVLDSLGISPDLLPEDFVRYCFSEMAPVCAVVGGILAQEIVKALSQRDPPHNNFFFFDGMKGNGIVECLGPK", "sequence (Q9UBT2 whole entry)": "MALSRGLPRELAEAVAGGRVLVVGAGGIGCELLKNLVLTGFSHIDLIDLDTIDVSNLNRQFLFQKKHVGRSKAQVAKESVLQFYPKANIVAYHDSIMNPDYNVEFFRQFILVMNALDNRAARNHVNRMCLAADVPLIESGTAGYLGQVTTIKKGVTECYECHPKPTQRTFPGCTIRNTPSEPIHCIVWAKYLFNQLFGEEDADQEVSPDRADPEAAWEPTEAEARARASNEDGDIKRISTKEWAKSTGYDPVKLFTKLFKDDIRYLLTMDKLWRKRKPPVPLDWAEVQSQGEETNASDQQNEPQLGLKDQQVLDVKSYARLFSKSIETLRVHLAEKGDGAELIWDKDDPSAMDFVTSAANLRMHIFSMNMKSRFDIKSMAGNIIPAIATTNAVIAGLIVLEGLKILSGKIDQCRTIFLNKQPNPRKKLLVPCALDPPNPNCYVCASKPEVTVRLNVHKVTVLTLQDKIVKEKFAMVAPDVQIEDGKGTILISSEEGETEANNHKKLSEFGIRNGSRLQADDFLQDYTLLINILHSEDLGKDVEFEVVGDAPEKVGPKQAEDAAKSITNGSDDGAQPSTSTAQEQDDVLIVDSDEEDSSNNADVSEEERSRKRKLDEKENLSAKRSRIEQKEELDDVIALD", "assay": "blockers of SAE1/SAE2–UBC9 SUMO transfer – biochemical, HTRF, uHTS, primary screen (AID 2006)", "assay_type": "protein-complex assay"}, "Caspase-3": {"target": "T1, Caspase-3 (Homo sapiens, UniProt P42574)", "T1 sequence (P42574 whole entry)": "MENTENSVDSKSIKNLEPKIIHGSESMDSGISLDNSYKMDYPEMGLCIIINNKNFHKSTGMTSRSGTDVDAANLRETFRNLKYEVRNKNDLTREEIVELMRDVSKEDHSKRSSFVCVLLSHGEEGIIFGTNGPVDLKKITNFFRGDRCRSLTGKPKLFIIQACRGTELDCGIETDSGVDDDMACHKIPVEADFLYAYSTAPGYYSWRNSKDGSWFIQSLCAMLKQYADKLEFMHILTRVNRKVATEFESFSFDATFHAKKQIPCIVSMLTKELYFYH", "assay_type": "functional"}, "A-375": {"system": "A-375", "assay": "proliferation inhibition in MITF-low A375 cells – cell-based, cherry-pick samples, set 2, counter-screen for MITF modulator project, dose response (AID 540335)", "assay_type": "functional", "settings": "Homo sapiens"}, "[1]": {"target": "T2, Heat shock factor protein 1 (Mus musculus, UniProt P38532)", "T2 sequence (P38532 whole entry)": "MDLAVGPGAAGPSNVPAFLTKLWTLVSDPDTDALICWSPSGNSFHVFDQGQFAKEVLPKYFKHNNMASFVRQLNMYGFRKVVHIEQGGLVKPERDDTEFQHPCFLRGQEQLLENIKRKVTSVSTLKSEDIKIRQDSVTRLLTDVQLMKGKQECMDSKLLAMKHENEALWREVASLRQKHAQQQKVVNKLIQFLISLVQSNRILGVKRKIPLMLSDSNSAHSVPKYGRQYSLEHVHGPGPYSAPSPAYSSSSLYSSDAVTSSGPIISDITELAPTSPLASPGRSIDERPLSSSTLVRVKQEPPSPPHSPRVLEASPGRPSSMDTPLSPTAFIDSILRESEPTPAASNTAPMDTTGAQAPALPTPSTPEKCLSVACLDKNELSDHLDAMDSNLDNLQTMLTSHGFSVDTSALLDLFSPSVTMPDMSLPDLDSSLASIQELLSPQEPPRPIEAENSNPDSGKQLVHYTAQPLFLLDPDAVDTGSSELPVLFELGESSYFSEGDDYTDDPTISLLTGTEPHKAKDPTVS", "assay": "decrease of HSF1-responsive luciferase luminescence – cell-based, NIH3T3, dose retest, confirmation (AID 2382);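 further: NIH3T3 fibroblasts with HSF1-driven luciferase reporter stressed by proteasome inhibitor MG132; luminescence from HSF1-driven luciferase expression after 8 hours of MG132 stress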", "assay_type": "functional"}, "HEK293": {"system": "HEK293", "assay": "HEK293T cell viability loss, resazurin readout – resazurin fluorescence, cytotoxicity control for NF-kB activator project, SAR follow-up (AID 493251)", "assay_type": "functional, cell-based", "settings": "Homo sapiens"}, "[2]": {"assay": "cytotoxicity toward Colo320 cells – cell-based, CellTiter-Glo luminescence, IC50, dose response (AID 1117334)", "assay_type": "functional", "settings": "COLO 320"}, "Streptokinase A": {"target": "T3, Streptokinase A (Streptococcus pyogenes serotype M1, UniProt P10520)", "T3 sequence (P10520 whole entry)": "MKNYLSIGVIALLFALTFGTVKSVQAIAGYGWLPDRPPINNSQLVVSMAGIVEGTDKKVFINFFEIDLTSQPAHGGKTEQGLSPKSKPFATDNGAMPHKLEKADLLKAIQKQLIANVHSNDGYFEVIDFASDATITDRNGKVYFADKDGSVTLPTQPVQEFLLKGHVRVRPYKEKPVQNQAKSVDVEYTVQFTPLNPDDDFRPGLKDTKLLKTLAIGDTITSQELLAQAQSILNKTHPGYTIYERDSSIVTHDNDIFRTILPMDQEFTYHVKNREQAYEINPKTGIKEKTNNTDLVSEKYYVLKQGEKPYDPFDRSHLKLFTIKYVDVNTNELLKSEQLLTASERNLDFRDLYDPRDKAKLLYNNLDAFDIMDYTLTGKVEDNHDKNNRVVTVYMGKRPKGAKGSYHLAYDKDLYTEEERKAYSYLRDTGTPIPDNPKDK", "assay": "viability-normalized secreted streptokinase activity reduction – plasminogen activation absorbance, OD405, dose response (AID 1914);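 further: secreted streptokinase activity via plasminogen activation per viability signal from cell pellet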", "assay_type": "functional, Streptococcus pyogenes M1 GAS"}, "Fatty acid synthase": {"target": "Fatty acid synthase (Homo sapiens, UniProt P49327)", "sequence (P49327 whole entry)": "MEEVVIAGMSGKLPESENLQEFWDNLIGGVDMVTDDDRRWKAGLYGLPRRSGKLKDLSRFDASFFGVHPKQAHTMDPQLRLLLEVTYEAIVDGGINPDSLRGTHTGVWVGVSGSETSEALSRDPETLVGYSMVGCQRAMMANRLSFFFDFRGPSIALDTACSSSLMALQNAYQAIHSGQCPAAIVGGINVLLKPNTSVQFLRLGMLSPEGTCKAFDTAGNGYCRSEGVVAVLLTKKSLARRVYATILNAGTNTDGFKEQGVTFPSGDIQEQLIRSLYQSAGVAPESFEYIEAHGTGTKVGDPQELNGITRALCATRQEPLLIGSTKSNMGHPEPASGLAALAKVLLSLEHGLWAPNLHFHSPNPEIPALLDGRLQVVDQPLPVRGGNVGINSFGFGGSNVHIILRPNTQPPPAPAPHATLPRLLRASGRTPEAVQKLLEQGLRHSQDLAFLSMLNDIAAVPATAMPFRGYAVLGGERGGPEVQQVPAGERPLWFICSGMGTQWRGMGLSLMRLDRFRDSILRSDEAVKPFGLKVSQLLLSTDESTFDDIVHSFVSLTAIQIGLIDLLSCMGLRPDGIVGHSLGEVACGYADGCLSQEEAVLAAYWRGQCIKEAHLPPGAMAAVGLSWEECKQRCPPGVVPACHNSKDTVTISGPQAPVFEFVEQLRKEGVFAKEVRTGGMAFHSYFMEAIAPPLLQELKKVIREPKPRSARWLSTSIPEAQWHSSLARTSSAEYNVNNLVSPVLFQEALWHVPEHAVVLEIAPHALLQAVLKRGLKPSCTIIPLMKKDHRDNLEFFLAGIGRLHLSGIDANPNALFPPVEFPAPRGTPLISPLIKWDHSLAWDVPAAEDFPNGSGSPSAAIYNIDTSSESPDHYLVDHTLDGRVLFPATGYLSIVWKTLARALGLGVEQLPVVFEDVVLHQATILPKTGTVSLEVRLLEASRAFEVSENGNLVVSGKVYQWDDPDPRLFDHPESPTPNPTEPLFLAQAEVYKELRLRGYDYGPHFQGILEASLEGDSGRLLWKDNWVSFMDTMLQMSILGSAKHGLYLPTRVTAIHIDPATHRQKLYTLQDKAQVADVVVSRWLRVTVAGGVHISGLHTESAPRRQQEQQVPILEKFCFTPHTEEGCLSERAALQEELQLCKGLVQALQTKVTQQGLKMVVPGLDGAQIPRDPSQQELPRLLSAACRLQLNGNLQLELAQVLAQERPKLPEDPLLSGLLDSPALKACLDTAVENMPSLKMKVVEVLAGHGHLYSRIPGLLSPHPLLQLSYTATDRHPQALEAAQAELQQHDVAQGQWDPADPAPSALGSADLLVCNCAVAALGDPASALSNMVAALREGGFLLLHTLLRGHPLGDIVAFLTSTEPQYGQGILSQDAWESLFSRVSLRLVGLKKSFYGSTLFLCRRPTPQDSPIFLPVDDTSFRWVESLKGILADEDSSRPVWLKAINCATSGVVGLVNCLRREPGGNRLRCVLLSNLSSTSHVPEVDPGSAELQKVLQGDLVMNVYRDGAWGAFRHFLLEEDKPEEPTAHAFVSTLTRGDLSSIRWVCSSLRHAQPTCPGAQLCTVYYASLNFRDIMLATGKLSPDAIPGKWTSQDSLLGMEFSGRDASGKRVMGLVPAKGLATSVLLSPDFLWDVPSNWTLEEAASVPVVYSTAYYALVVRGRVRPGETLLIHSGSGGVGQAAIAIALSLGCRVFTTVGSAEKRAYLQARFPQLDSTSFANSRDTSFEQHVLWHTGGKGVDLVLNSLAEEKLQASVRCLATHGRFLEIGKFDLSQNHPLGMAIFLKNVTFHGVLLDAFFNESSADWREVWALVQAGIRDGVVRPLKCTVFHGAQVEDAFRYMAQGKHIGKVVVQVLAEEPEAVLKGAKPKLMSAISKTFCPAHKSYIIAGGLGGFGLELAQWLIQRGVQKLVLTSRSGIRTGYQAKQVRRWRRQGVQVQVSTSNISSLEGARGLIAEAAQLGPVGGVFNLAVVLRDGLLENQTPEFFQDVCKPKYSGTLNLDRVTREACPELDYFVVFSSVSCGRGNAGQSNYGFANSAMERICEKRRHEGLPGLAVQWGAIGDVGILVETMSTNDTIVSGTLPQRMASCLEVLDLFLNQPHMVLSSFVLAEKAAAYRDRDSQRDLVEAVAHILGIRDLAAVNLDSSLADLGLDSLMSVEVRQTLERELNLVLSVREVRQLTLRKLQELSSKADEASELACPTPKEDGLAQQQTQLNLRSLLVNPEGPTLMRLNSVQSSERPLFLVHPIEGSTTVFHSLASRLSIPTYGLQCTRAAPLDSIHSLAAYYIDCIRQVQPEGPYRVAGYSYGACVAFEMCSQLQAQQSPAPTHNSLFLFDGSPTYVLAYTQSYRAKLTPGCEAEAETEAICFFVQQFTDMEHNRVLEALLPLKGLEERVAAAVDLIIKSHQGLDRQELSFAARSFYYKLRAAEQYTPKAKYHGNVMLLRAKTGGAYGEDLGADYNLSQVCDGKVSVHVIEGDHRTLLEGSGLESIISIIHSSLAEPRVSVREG", "assay": "inhibition of human FAS-TE enzyme activity – biochemical, endpoint fluorescence intensity, uHTS hits, dose response (AID 624327);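 further: fluorescence from hydrolysis of an O-methyl fluorescein acyl ester substrate by the enzyme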", "assay_type": "functional"}, "[3]": {"target": "T4, Calpain-2 catalytic subunit (Sus scrofa, UniProt P43367)", "T4 sequence (P43367 whole entry)": "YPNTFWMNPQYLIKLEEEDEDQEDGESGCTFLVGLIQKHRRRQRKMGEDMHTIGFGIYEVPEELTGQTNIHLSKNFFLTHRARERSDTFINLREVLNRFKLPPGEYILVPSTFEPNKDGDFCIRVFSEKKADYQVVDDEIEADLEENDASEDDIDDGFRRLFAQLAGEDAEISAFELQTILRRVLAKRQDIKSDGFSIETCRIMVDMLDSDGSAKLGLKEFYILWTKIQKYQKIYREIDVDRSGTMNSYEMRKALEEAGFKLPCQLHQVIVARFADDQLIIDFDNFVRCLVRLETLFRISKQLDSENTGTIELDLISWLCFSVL", "assay": "m-calpain protease blockers, concentration series – biochemical, fluorogenic peptide substrate, dose response (AID 1420)", "assay_type": "functional"}},
  "note": "The source made the active and inactive calls.",
  "data": [
    {"smiles": "N#Cc1c(N2CCCCC2)nc(N)c2c(N)nc(SCC(=O)O)cc12", "values": [
      {"measurement": "IC50", "setting": "SUMO-activating enzyme", "result": "3.92 µM (active)"},
      {"measurement": "IC50", "setting": "Caspase-3", "result": "33.7 µM (active)"}
    ]},
    {"smiles": "CC1(C)Cc2ccccc2C2=NNC(=O)C2=N1", "values": [
      {"measurement": "AC50", "setting": "A-375", "result": "35.3 µM (active)"}
    ]},
    {"smiles": "CCCC(=O)NC(c1ccc(C(C)C)cc1)c1ccc2cccnc2c1O", "note": "(centres undefined)", "values": [
      {"measurement": "EC50", "setting": "[1]", "result": "1.63 µM (active)"},
      {"measurement": "IC50", "setting": "HEK293", "result": "24.8 µM (inactive)"}
    ]},
    {"smiles": "Oc1c(Cl)cc(Cl)c(Cl)c1Cc1c(O)c(Cl)cc(Cl)c1Cl", "note": "[HEXACHLOROPHENE]", "values": [
      {"measurement": "IC50", "setting": "[2]", "result": "0.0572 µM (active)"},
      {"measurement": "EC50", "setting": "Streptokinase A", "result": "> 150 µM (not active)"},
      {"measurement": "IC50", "setting": "Fatty acid synthase", "result": "7.79 µM (active)"},
      {"measurement": "IC50", "setting": "[3]", "result": "3.73 µM (active)"}
    ]}
  ]
}
